According to US4377581A, “Chloro- and alkoxy-substituted-2,4-diaminoquinazolines” (Pfizer Inc., priority 1981, dated 1983):
Entries after “also recorded” stand apart in the source; their conditions may differ. Counter-ions that a name gives are not always drawn.

System: not given
Experiment: not given
Settings: literature; cited from earlier work

Compound | antihypertensive activity / potency
COc1cc2nc(N3CCN(C(=O)c4ccco4)CC3)nc(N)c2cc1O [6-0-demethyl derivative] | considerably lower blood pressure lowering activity
COc1cc2c(N)nc(N3CCN(C(=O)OCC(C)(C)O)CC3)nc2c(OC)c1OC [Trimazosin] | active antihypertensive agent; also recorded: less potent than prazosin
COc1cc2nc(N3CCN(C(=O)c4ccco4)CC3)nc(N)c2cc1OC [prazosin, 2-[4-(2-furoyl)piperazin-1-yl]-4-amino-6,7-dimethoxyquinazoline] | clinically useful antihypertensive agent

System: conscious renally hypertensive dogs
Experiment: Blood pressure lowering in conscious renally hypertensive dogs, oral
Type: in vivo, dog
Settings: 0.2 mg./hg. as printed, time of reduction not given
Experimental: The antihypertensive activity of the compounds of the invention is shown by their ability to lower the blood pressure of conscious spontaneously hypertensive rats and conscious renally hypertensive dogs, when administered orally at doses of up to 30 mg./kg.
Similarly, at the same dosage 2-[4-(2-hydroxy-2-methylprop-1-yloxycarbonyl)piperazin-1-yl]-4-amino-6-chloro-7-methoxyquinazoline, a particularly preferred compound of the invention, caused a reduction of 40 mm. Hg after one hour which increased only by 20 mm. Hg 6 hours after administration; and another particularly preferred compound: 2-[4-(2-furoyl)-1-piperazinyl]-4-amino-6-chloro-7-methoxyquinazoline effected a reduction in blood pressure of 40 mm. Hg which increased by only 5 mm. Hg six hours after the oral dose (0.2 mg./hg.) had been administered.

Compound | reduction in blood pressure [mm. Hg]
COc1cc2nc(N3CCN(C(=O)c4ccco4)CC3)nc(N)c2cc1Cl [2-[4-(2-furoyl)-1-piperazinyl]-4-amino-6-chloro-7-methoxyquinazoline] | 40

Same assay, conditions: 0.2 mg./kg.

Compound | heart rate change | other side effect
COc1cc2nc(N3CCN(C(=O)c4ccco4)CC3)nc(N)c2cc1Cl [2-[4-(2-furoyl)-1-piperazinyl]-4-amino-6-chloro-7-methoxyquinazoline] | no significant heart rate change | no significant heart rate change or other unwanted side effect
COc1c(Cl)cc2c(N)nc(N3CCN(C(=O)OCC(C)(C)O)CC3)nc2c1OC [2-[4-(2-hydroxy-2-methylprop-1-yloxycarbonyl)piperazin-1-yl]-4-amino-6-chloro-7,8-dimethoxyquinazoline] | no significant change in heart rate | no significant change in heart rate or other side effect
COc1cc2nc(N3CCN(C(=O)OCC(C)(C)O)CC3)nc(N)c2cc1Cl [2-[4-(2-hydroxy-2-methylprop-1-yloxycarbonyl)piperazin-1-yl]-4-amino-6-chloro-7-methoxyquinazoline] | no significant heart rate change | no significant heart rate change or other unwanted side effect

Same assay, conditions: 0.2 mg./kg., 4 hours, statistically significant

Compound | decrease of blood pressure after 4 hours [mm. Hg]
COc1c(Cl)cc2c(N)nc(N3CCN(C(=O)OCC(C)(C)O)CC3)nc2c1OC [2-[4-(2-hydroxy-2-methylprop-1-yloxycarbonyl)piperazin-1-yl]-4-amino-6-chloro-7,8-dimethoxyquinazoline] | 30

Same assay, conditions: 0.2 mg./kg., 6 hours after dose

Compound | increase (return) of the reduced blood pressure 6 hours after administration [mm. Hg]
COc1cc2nc(N3CCN(C(=O)c4ccco4)CC3)nc(N)c2cc1Cl [2-[4-(2-furoyl)-1-piperazinyl]-4-amino-6-chloro-7-methoxyquinazoline] | 5
COc1cc2nc(N3CCN(C(=O)OCC(C)(C)O)CC3)nc(N)c2cc1Cl [2-[4-(2-hydroxy-2-methylprop-1-yloxycarbonyl)piperazin-1-yl]-4-amino-6-chloro-7-methoxyquinazoline] | 20

Same assay, conditions: same dosage (0.2 mg./kg.), one hour

Compound | reduction of blood pressure after one hour [mm. Hg]
COc1cc2nc(N3CCN(C(=O)OCC(C)(C)O)CC3)nc(N)c2cc1Cl [2-[4-(2-hydroxy-2-methylprop-1-yloxycarbonyl)piperazin-1-yl]-4-amino-6-chloro-7-methoxyquinazoline] | 40

System: not given
Experiment: not given
Settings: Althuis et al., J. Med. Chem., 20, 146 (1977); cited from earlier work

Compound | metabolite of prazosin
COc1cc2nc(N3CCN(C(=O)c4ccco4)CC3)nc(N)c2cc1O [6-0-demethyl derivative] | major metabolite of prazosin
COc1cc2c(N)nc(N3CCN(C(=O)c4ccco4)CC3)nc2cc1O [7-0-demethyl derivative] | less prevalent metabolite

System: not listed separately
Experiment: Water solubility
Type: physicochemical
Settings: Example 10 table; hydrochloride salts except as otherwise noted; solvent not given; read-out: Solubility

solubility [mg/mL] | Compound
150 | COc1ccc2c(N)nc(N3CCN(C(=O)C4CCCO4)CC3)nc2c1OC (stereo not shown)
11 | COc1ccc2c(N)nc(N3CCN(C(=O)c4cccs4)CC3)nc2c1OC
50 | COc1ccc2c(N)nc(N3CCN(C(=O)c4ccccc4)CC3)nc2c1OC
15 | COc1ccc2c(N)nc(N3CCN(C(=O)C4COc5ccccc5O4)CC3)nc2c1OC (stereo not shown)
8 | COc1ccc2c(N)nc(N3CCN(c4cccc(C(F)(F)F)c4)CC3)nc2c1OC [3-CF3 C6 H4]
25 | COc1ccc2c(N)nc(N3CCN(c4ccccc4)CC3)nc2c1OC [C6 H5]
100 | COc1ccc2c(N)nc(N3CCN(Cc4ccccc4)CC3)nc2c1OC [CH2 C6 H5]
95 | COc1ccc2c(N)nc(N3CCN(CCO)CC3)nc2c1OC [CH2 CH2 OH]
50 | C=CCN1CCN(c2nc(N)c3ccc(OC)c(OC)c3n2)CC1 [CH2 CHCH2]
140 | CCCOC(=O)N1CCN(c2nc(N)c3ccc(OC)c(OC)c3n2)CC1 [COO(CH2)2 CH3]
25 | COc1ccc2c(N)nc(N3CCN(C(=O)OCCC(C)C)CC3)nc2c1OC [COO(CH2)2 CH(CH3)2]
40 | CCCCCOC(=O)N1CCN(c2nc(N)c3ccc(OC)c(OC)c3n2)CC1 [COO(CH2)4 CH3]
90 | CCCCOC(=O)N1CCN(c2nc(N)c3ccc(OC)c(OC)c3n2)CC1 [COO(CH 2)3 CH3]
50 | CCOC(=O)N1CCN(c2nc(N)c3ccc(OC)c(OC)c3n2)CC1 [COOCH2 CH3]
40 | COc1ccc2c(N)nc(N3CCN(C(=O)OCC(C)C)CC3)nc2c1OC [COOCH2 CH(CH3)2]
40 | COC(=O)N1CCN(c2nc(N)c3ccc(OC)c(OC)c3n2)CC1 [COOCH3]

Same assay, conditions: water; hydrochloride salts; read-out: water solubility

solubility [mg/mL] | Compound
20 | COc1ccc2c(N)nc(N3CCN(C(=O)c4ccco4)CC3)nc2c1OC.Cl [Example 4, 2-[4-(2-Furoyl)piperazine-1-yl]-4-amino-7,8-dimethoxyquinazoline hydrochloride]
30 | COc1ccc2c(N)nc(N3CCCN(C(=O)c4ccco4)CC3)nc2c1OC [Example 11, 2-[4-(2-Furoyl-homopiperazine-1-yl]-4-amino-7,8-dimethoxyquinazoline hydrochloride]

The remaining lines, values behind:

Compound | solubility [mg/mL]
COc1c(Cl)cc2c(N)nc(N3CCN(C(=O)c4ccco4)CC3)nc2c1OC.Cl [Example 8A, 2-[4-(2-Furoyl)piperazine-1-yl]-4-amino-6-chloro-7,8-dimethoxyquinazoline hydrochloride] | 8
COc1cc2nc(N3CCN(C(=O)c4ccco4)CC3)nc(N)c2cc1Cl.Cl [Example 8B, 2-[4-(2-Furoyl)piperazine-1-yl]-4-amino-6-chloro-7-methoxyquinazoline hydrochloride] | 5
COc1c(Cl)cc2c(N)nc(N3CCN(C(=O)OCC(C)(C)O)CC3)nc2c1OC.Cl [Example 9A, 2-Methyl-2-hydroxypropyl 4-[4-amino-6-chloro-7,8-dimethoxyquinazolin-2-yl]piperazine-1-carboxylate hydrochloride] | 35
COc1cc2nc(N3CCN(C(=O)OCC(C)(C)O)CC3)nc(N)c2cc1Cl [Example 9B, hydrochloride] | 6
COc1ccc2c(N)nc(N3CCCN(C(=O)C4CCCO4)CC3)nc2c1OC.Cl (stereo not shown) [Example 12, 2-[4-(2-Tetrahydrofuroyl)homopiperazin-1-yl]-4-amino-7,8-dimethoxyquinazoline hydrochloride] | 120
COc1ccc2c(N)nc(N3CCC(Cc4ccccc4)CC3)nc2c1OC.Cl [Example 13, 2-(4-Benzylpiperidin-1-yl)-4-amino-7,8-dimethoxyquinazoline hydrochloride] | 6
